How the values were obtained:
[1] = tested on: THP-1 cells; assay: Mitochondrial membrane potential by TMRE and flow cytometry; assay type: cell-based, human; settings: heme 1 hour, reduced to similar levels as in 7CKO cells
Procedure: Mitochondrial membrane potential was measured using Abcam kit (Catalog No. ab113852). Briefly, BMDM, THP-1 and 7CKO cells were not treated or treated with […] for 1 hour. The cells were incubated with mitochondrial membrane potential indicator, 200 nM TMRE (tetramethylrhodamine, ethyl ester) for 20 minutes. The mean fluorescence intensity of TMRE were determined by flow cytometry.

[2] = biological target: T1, endogenous MFSD7C and SERCA2b (Mus musculus, UniProt Q91X85); assay: Co-IP of endogenous MFSD7C and SERCA2b in bone marrow-derived macrophages; assay type: cell-based; settings: bone marrow-derived wild-type macrophages, heme treatment
T1 construct: Co-IP and immunoblotting analysis of endogenous MFSD7C with ATP5h, SERCA2b and HMOX1 in bone marrow-derived macrophages; endogenous in cells; host or cells: bone marrow-derived macrophages from C57BL/6 mice
Procedure: NTD was incubated with heme and run on Superdex 75 gel filtration column. The flow through was measured for absorbance at 230 nm (gray), 380 nm (blue), and 415 nm (green). Absorbance intensity was normalized to maximum value. […] Heme (100 μM) absorption was set to zero. […] Wildtype (WT) and mutant (Mut) peptide sequences are shown. […] Shown are representative data from five separate experiments. […] Shown are immunoblots of MFSD7C, ATP5h, SERCA2b, and HMOX1 on whole lysates or immunoblots of MFSD7C on anti-ATP5h, anti-SERCA2b and anti-HMOX1 immunoprecipitates. Representative data from one from three experiments are shown. […] Shown are representative data from three separate experiments. WCE: whole cell extract, Sup: supernatant, Mito: 10,000 g mitochondrial fraction. […] THP-1 cells were stained with MitoTracker (green), fixed and permeabilized, and then stained with rabbit polyclonal antibody specific for the C-terminus of MFSD7C, followed with Alexa Fluor® 594-labelled goat anti-rabbit antibody (red). Nuclei were labeled using DAPI (blue). […]
Differentiation of bone marrow-derived macrophage (BMDM). […] Cells were resuspended in DMEM media containing 10% FBS, 2 mM L-glutamine, 2 mM pyruvate, non-essential amino acids (100 μM each), 0.55 mM 2-mercaptoethanol, penicillin/streptomycin), passed through a 40 μm Falcon cell strainer (VWR) to remove large aggregates, and counted. […]

[3] = tested on: SERCA2b; assay: SERCA2b protein level by Western blotting, 4B8^FL cells; assay type: cell-based, human; settings: 40 μM heme for one hour, reduction by MFSD7C^FL expression
Procedure: FIGS. 5A-5F show MFSD7C and heme regulate thermogenesis through SERCA2b in THP-1 cells. […] 30 hours later, MG132 was added into half of the cells and the other half was not treated. Another 35 hours later, some cells were treated with 40 μM heme for 1 hour before lysis. Cell lysates were immunoprecipitated with anti-FLAG antibody, and eluted, followed by anti-HA immunoprecipitation and elution. Total cell lysate and elute were subjected to Western blotting and probed with anti-SERCA2b or anti-MFSD7C antibodies. Shown are representative data from one of three experiments. […] 24 hrs later, cells were either not treated or treated with 10 μM MG132 for either 6 or 12 hours. The cells were lysed and subjected to FLAG pull-down and blotted with anti-MFSD7C, anti-SERCA2b and anti-ubiquitin antibodies. Shown are representative data from one of three experiments. […] Parental THP-1 cells were either not treated or treated with heme before lysis. Shown are representative data from one of four experiments. […] Shown are representative data from one of two experiments. […] Cells were washed and treated with 40 μM heme for one hour before flow cytometry. Representative FPT histograms from one of three experiments are shown. […] Shown are representative FPT histograms from one of three experiments.
Endogenous protein extraction. […]

[4] = tested on: mutant HP motif peptide; assay: Heme absorbance-shift assay with mutant HP motif peptide; assay type: binding; settings: both histidine residues in the HP motif peptide mutated to alanine
Procedure: Peptide synthesis. Wild-type HP motif peptide (HPSALAQPSGLAHP) and mutant HP motif peptide (APSALAQPSGLAAP) were synthesized using solid-phase synthesis and purified using HPLC by the Biopolymers & Proteomics Core at the Koch Institute for Integrative Cancer Research.
Heme absorbance-shift assay. Hemin was prepared fresh before each experiment. Approximately 20 mg of hemin (Sigma) was placed in a fresh tube and resuspended with 1 mL of DMSO. The hemin solution was slowly diluted while mixing with 1 mL of 2× buffer C (25 mM HEPES-NaOH pH 7.8, 10 mM NaCl), and aggregated hemin was eliminated by passing the solution through a 0.2 μm filter unit. Hemin concentration was determined by diluting the filtered solution with 1× buffer C 1:100 and using the extinction coefficient of 58,400 cm^−1M^−1 at 385 nm. For each reaction, the 200 μL reaction mix containing 100 μM hemin, 25 mM HEPES-NaOH pH 7.8, 10 mM NaCl, and various concentrations of wild-type or mutant NTD protein, was placed in a transparent 96-well plate. Absorbance intensity was measured using Tecan Infinite M200 Pro microplate reader, between 330 and 550 nm using 5 nm steps. The absorbance intensity for dissolved hemin was subtracted from absorbance intensity from hemin incubated with various concentrations of protein.

T1 sequence (Q91X85 whole entry): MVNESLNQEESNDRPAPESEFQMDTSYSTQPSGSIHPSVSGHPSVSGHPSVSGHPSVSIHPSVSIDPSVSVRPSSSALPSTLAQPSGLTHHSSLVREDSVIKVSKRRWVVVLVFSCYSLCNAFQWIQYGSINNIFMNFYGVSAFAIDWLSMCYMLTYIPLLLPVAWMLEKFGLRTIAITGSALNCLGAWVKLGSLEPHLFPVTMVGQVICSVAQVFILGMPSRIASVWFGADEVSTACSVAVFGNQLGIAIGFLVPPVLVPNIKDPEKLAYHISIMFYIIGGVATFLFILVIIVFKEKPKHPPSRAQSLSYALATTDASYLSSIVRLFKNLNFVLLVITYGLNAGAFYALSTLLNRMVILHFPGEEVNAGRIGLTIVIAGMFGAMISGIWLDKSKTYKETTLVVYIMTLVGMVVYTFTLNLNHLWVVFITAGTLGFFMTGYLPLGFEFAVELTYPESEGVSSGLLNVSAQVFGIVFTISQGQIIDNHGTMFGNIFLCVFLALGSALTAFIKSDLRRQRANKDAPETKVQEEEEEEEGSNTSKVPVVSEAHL

For `C=CC1=C(C)c2cc3[n-]c(cc4[n-]c(cc5nc(cc1n2)C(C)=C5C=C)c(C)c4CCC(=O)O)c(CCC(=O)O)c3C.[Fe+2]` [heme], the MMP [1] was “reduced”, the “co-IP of endogenous MFSD7C and SERCA2b” value [2] was “diminished” and the SERCA2b level [3] was “restored”. The “absorbance shift of heme” value [4] was “abolished”.

— patent publication US20230313199A1, “TARGET FOR MODULATING BODY MASS” (Massachusetts Institute of Technology, priority 2020, published 2023)
